The record followed here is paper PMC10453993 (Emerging Microbes & Infections, 2023).

Experiment [1] addresses T1, recombinant SARS-CoV-2 3CLpro (Severe acute respiratory syndrome coronavirus 2, UniProt P0DTD1). Kind of experiment: biochemical.
Experiment [2] concerns SARS-CoV-2 Omicron BQ.1.1. Description: microbe, parasite or virus in culture. The class given is cell-based. The settings on record: Severe acute respiratory syndrome coronavirus 2, Calu-3, read-out: BQ.1.1 EC50 Calu-3, nucleocapsid.
Experiment [3] deals with SARS-CoV-2 B.1.617.2 Delta. Kind of experiment: microbe, parasite or virus in culture. The class given is cell-based. The note with it: Severe acute respiratory syndrome coronavirus 2, Calu-3, read-out: Delta EC50.
The test system of experiment [4] is SARS-CoV-2 Omicron BA.5. Kind of experiment: microbe, parasite or virus in culture. The class given is cell-based. The settings on record: Severe acute respiratory syndrome coronavirus 2, Calu-3, read-out: BA.5 EC50 Calu-3, nucleocapsid, Calu-3, nucleocapsid staining.
The subject of experiment [5] is HCoV-229E. Description: microbe, parasite or virus in culture. The settings on record: Human coronavirus 229E, Caco-2, read-out: HCoV-229E EC50. The class given is cell-based.
Experiment [6] relates to SARS-CoV-2 Omicron XBB.1.5. Description: microbe, parasite or virus in culture. The class given is cell-based. The settings on record: Severe acute respiratory syndrome coronavirus 2, Caco-2, read-out: XBB.1.5 EC50, nucleocapsid.
The target in experiment [7] is T1, recombinant SARS-CoV-2 3CLpro. Description: cell-based.

On to `COc1ccc(Cl)cc1CN(C(=O)Cc1cncc2ccccc12)c1ccc(N(C)C)cc1` [C5d, N-(5-chloro-2-methoxybenzyl)-N-(4-(dimethylamino)phenyl)-2-(isoquinolin-4-yl)acetamide], for which the IC50 in experiment [1] was 2200 ± 700 nM.

Regarding `CN(C)c1ccc(N(Cc2cc(Cl)cs2)C(=O)Cc2cncc3ccccc23)cc1` [C5, N-((4-chlorothiophen-2-yl)methyl)-N-(4-(dimethylamino)phenyl)-2-(isoquinolin-4-yl)acetamide], the EC50 in experiment [2] came to 300 nM; in experiment [3], 3200 nM; in experiment [4] it was 100 nM; in experiment [5] it was 4200 ± 700 nM; in experiment [6] it was 100 nM. The IC50 in experiment [1] turned out to be 900 ± 600 nM.

With `CC(C)(C)c1ccc(N(Cc2cc(Cl)cs2)C(=O)Cc2cncc3ccccc23)cc1` [C3, N-(4-(tert-butyl)phenyl)-N-((4-chlorothiophen-2-yl)methyl)-2-(isoquinolin-4-yl)acetamide], in experiment [5], the EC50 was found to be 9600 ± 1000 nM. Besides, the IC50 in experiment [1] stood at 5000 ± 300 nM; in experiment [7], 1200 ± 1000 nM.

With `CC(C)(C)[C@H](NC(=O)C(F)(F)F)C(=O)N1C[C@H]2[C@@H]([C@H]1C(=O)N[C@H](C#N)C[C@@H]1CCNC1=O)C2(C)C` [C7, Nirmatrelvir, reference compound], the EC50 in experiment [2] was 400 nM; in experiment [3], 1300 nM; in experiment [4] it was 400 nM; in experiment [5], 2000 ± 1200 nM; in experiment [6] it was 300 nM.

For the compound `CN(C)c1ccc(N(Cc2cccc(Br)c2)C(=O)Cc2cncc3ccccc23)cc1` [C5e, N-(3-bromobenzyl)-N-(4-(dimethylamino)phenyl)-2-(isoquinolin-4-yl)acetamide], the IC50 in experiment [1] was determined as 1400 ± 800 nM.

In the case of `CN(C)c1ccc(N(Cc2cc(Cl)cs2)C(=O)Cc2cncc3c(O)cccc23)cc1` [C5b, N-((4-chlorothiophen-2-yl)methyl)-N-(4-(dimethylamino)phenyl)-2-(8-hydroxyisoquinolin-4-yl)acetamide], in experiment [1], the concentration for half-maximal inhibition (IC50) stood at 4500 ± 1000 nM.

Regarding `CSc1ccc(N(Cc2cc(Cl)cs2)C(=O)Cc2cncc3ccccc23)cc1` [C4, N-((4-chlorothiophen-2-yl)methyl)-2-(isoquinolin-4-yl)-N-(4-(methylthio)phenyl)acetamide], in experiment [5], the EC50 was 7900 ± 3800 nM. For the same compound, the results for the IC50 in experiment [1] and in experiment [7] were 2300 ± 200 nM and 600 ± 300 nM, respectively.

Take `C=CCC(c1cc(Cl)cs1)N(C(=O)Cc1cncc2ccccc12)c1ccc(N(C)C)cc1` (stereo not drawn) [C5c, N-(1-(4-chlorothiophen-2-yl)but-3-en-1-yl)-N-(4-(dimethylamino)phenyl)-2-(isoquinolin-4-yl)acetamide]: the IC50 in experiment [1] was 1400 ± 800 nM.

`COc1ccc(N(Cc2cc(Cl)cs2)C(=O)Cc2cncc3ccccc23)cc1` [C2, N-((4-chlorothiophen-2-yl)methyl)-2-(isoquinolin-4-yl)-N-(4-methoxyphenyl)acetamide]: the EC50 in experiment [5] is 5600 ± 1400 nM. For the same compound, the IC50 stood at 8500 ± 1700 nM in experiment [1] and 600 ± 200 nM in experiment [7].
